Test results from US20160115540A1, “PRODRUGS AND DRUGS” (Biogen MA Inc., priority 2013, published 2016).
Where a name gives a salt, the structure may show the parent alone.

Test system: whole blood
Test: Transcriptional profiling on Affymetrix GeneChips, single dose, naïve mice: whole blood
Assay type: in vivo, C57BL/6 mice
Details: for Number of differentially expressed genes identified: Whole blood: Naïve, Single Dose
Protocol: Treated mice were sacrificed at 2, 7, or 12 hours. Tissues (liver, spleen, kidney, jejunum, cortex, hippocampus, striatum and whole blood) were collected and analyzed by transcriptional profiling on mouse Affymetrix GeneChips. […] While the experiments were performed in mice, the human homolog of the identified murine gene transcript is included in the tables. Additional genes that were identified in the study are provided in APPENDIX A, filed herewith on even date, the contents of which are herein incorporated by reference in their entirety. Additional studies are described in the Examples, and genes identified in the studies are provided in […], and APPENDIX E filed herewith on even date, the contents of each of which are herein incorporated by reference in their entirety. […] Tissues (liver, spleen, kidney, jejunum, cortex, hippocampus, striatum and whole blood) were collected and analyzed by transcriptional profiling on mouse Affymetrix GeneChips. […] Animals were exposed to CO2 and whole blood collected via cardiac puncture. Two 100 μl aliquots of whole blood were collected in 1.5 mL microcentrifuge tubes and snap frozen in liquid nitrogen. Peripheral (liver, spleen, kidney and jejunum) and CNS brain (cerebellum, hippocampus, striatum and cortex) tissues were harvested and snap frozen in liquid nitrogen, with special care taken to collect tissues of similar size and from the same location. All samples were stored at -80° C. until RNA extraction was conducted. 50 ul of snap frozen mouse blood was re-suspended in lysis buffer with proteinase K and arrayed into deep-well plates for automated RNA extraction. RNA extractions were completed on […] (Beckman Coulter, Indianapolis, Ind.) using Agencourt RNAdvance Blood kit (Part number A35604) according to the manufacturer's specifications. RNA integrity was assessed using the HT RNA reagent kit (Part number 760410, Caliper Life Sciences, Hopkinton, Mass.) using a LabChip GX (PerkinElmer, Waltham, Mass.). RNA samples with a RQS score of >8.0 were considered high quality for downstream microarray processing. […] Two micrograms of biotin labeled […] probe were hybridized to Affymetrix GeneChip Affymetrix HT_MG-430_PM plate arrays with modified conditions as described in […] et al. Washing and staining of the hybridized arrays were completed as described in the GeneChip Expression analysis technical manual for HT plate arrays using the Genechip® Array Station (Affymetrix, Santa Clara, Calif.) with modifications as described in […] et al. The processed GeneChip® plate arrays were scanned using GeneTitan scanner (Affymetrix, Santa Clara, Calif.). Affymetrix scans were subject to quality control (QC) measures. These tests included a visual inspection of the distribution of raw signal intensities and an assessment of RNA degradation, relative log expression (RLE), and normalized unsealed standard error (NUSE). All sample scans that passed these QC metrics were included in the analysis. All CEL files were subjected to GC-content-based Robust Multi-array Average (GCRMA) normalization (version 2.20.0) (Irizarry R A, et al. Nucleic Acids Res 2003; 31:e15; Li C, et al. Genome Biol 2001; 2:[…]0032). […] Stat Appl Genet Mol Biol 2004; 3:Article3). […] Springer Science+Business Media 2005).

[1] = 100 mpk, vs Vehicle, 2 h after last dosing
[2] = 100 mpk, vs Vehicle, 7 h after last dosing
[3] = 100 mpk, vs Vehicle, 12 h after last dosing
[4] = whole blood, 100DMF-vs-Veh, 2 h
[5] = whole blood, 100DMF-vs-Veh, 12 h
[6] = whole blood, 100MMF-vs-Veh, 12 h

COC(=O)/C=C/C(=O)OC [DMF, dimethyl fumarate]
Number of genes, DMF Only / MMF Only (Blood): 6 | Cpsf2 (1420937_PM_at) differential expression (Blood, 2 hr): −1.65 | Gzma (1417898_PM_a_at) differential expression (Blood, 12 hr): 1.92 | Klrb1b (1445399_PM_at) differential expression (Blood, 12 hr): 1.65 | Klrc1 (1425005_PM_at) differential expression (Blood, 12 hr): 1.85 | Klre1 (1458642_PM_at) differential expression (Blood, 12 hr): 1.85 | Ncr1 (1422089_PM_at) differential expression (Blood, 12 hr): 1.86 | Number of differentially expressed genes identified: Whole blood (100 mpk DMF-vs-100 mpk MMF, 2 h after last dosing): 0 | Number of differentially expressed genes identified: Whole blood (100 mpk DMF-vs-100 mpk MMF, 7 h after last dosing): 1 | Number of differentially expressed genes identified: Whole blood (100 mpk DMF-vs-100 mpk MMF, 12 h after last dosing): 0 | Number of differentially expressed genes identified: Whole blood [1]: 2 | Number of differentially expressed genes identified: Whole blood [2]: 0 | Number of differentially expressed genes identified: Whole blood [3]: 5 | differentially expressed genes (whole blood, 100DMF-vs-100MMF, 2 h): None | FC Lman1 (1444037_PM_at) (whole blood, 100DMF-vs-100MMF, 7 h): 1.63 | differentially expressed genes (whole blood, 100DMF-vs-100MMF, 12 h): None | FC Cpsf2 (1420937_PM_at) [4]: −1.65 | FC probe 1441373_PM_at [4]: −1.70 | FC Gzma (1417898_PM_a_at) [5]: 1.92 | FC Klrb1b (1445399_PM_at) [5]: 1.65 | FC Klrc1 (1425005_PM_at) [5]: 1.85 | FC Klre1 (1458642_PM_at) [5]: 1.85 | FC Ncr1 (1422089_PM_at) [5]: 1.86 | differentially expressed genes (whole blood, 100DMF-vs-Veh, 7 h): None

COC(=O)/C=C/C(=O)O [MMF, monomethyl fumarate]
Number of genes, DMF Only / MMF Only (Blood): 2 | Bcl3 (1418133_PM_at) differential expression (Blood, 2 hr): −1.23 | Sdc1 (1415943_PM_at) differential expression (Blood, 12 hr): −1.96 | Number of differentially expressed genes identified: Whole blood [1]: 1 | Number of differentially expressed genes identified: Whole blood [2]: 0 | Number of differentially expressed genes identified: Whole blood [3]: 2 | FC Bcl3 (1418133_PM_at) (whole blood, 100MMF-vs-Veh, 2 h): −1.67 | FC 0710007G10Rik /// Tmem175 (1435109_PM_at) [6]: −1.52 | FC Sdc1 (1415943_PM_at) [6]: −1.96 | Bcl3 mRNA fold change vs vehicle (whole blood, 2 hr after single 100 mg/kg oral dose): −1.23 | Sdc1 mRNA fold change vs vehicle (whole blood, 12 hr after single 100 mg/kg oral dose): −1.96
